Source: patent US4910318A, “Tetrahydrothiopyrano(3,2-b)-indole derivatives” (Shionogi & Co., Ltd., priority 1980, dated 1990)
Structures can show the parent of a compound that is named as a salt.

Legend:
Acetic acid writhing = assay: Analgesic activity (Acetic acid writhing method); type: in vivo, DS male mice; details: Mus musculus; mice, oral, 30 min before acetic acid i.p.; writhing counted for 10 minutes; read-out: Analgesic activity ED50 (Test (2))
Experimental: (2) Analgesic activity (Acetic acid writhing method)
DS male mice (20-23 g, body weight) are treated with an intraperitoneal injection of 0.1 ml/10 g of 0.6% acetic acid 30 minutes after oral administration of a test compound. The number of writhing times for 10 minutes is counted and ED50 is calculated.

Acute toxicity = details: mouse, in vivo; mice, oral, mortality at the 72nd hour; read-out: Acute toxicity LD50 (Test (3))
Experimental: DS mice (20-23 g, male) are orally administered a suspension of test compound with gum arabic. The mortality at the 72nd hour is determined and the LD50 is calculated.

Carrageenin edema = assay: Anti-inflammatory activity (Carrageenin edema method); type: in vivo, JCl-Wistar female rats; details: Rattus norvegicus; rats, oral, 30 min before carrageenin; swelling measured 3 hours later; read-out: Anti-inflammatory activity ED30 (Test (1))
Experimental: (1) Anti-inflammatory activity (Carrageenin edema method)
A 0.9% saline solution (0.05 ml) containing 1.0% carrageenin is used as phlogistic agent. After 30 minutes JCl-Wistar female rats (180-200 g, body weight) are orally administered a test compound, the phlogistic agent is injected subcutaneously into the plantar of the feet of the rats. The volume of swelling is measured 3 hours later and the anti-edema activity is determined by calculating a ratio (%) of the edematous volume of medicated foot to that of non-medicated foot.

[1] = system: spontaneous locomotion in mice; assay: Spontaneous locomotor increasing activity; type: in vivo; details: for ED50: Mus musculus, 50% increase vs control, 95% confidence limits on next line, read-out: ED50 (increasing effect on spontaneous locomotion); for ED50 / % of increase of spontaneous locomotion: oral
Experimental: (6) Spontaneous locomotor increasing activity
For each group 3 mice were used. Spontaneous locomotor activity was recorded for 15 minutes by a Varimex activity meter from 15 minutes after oral administration of a test compound.

[2] = system: bizarre behaviours of mice; assay: Hallucinogenic activity (bizarre behaviours); type: in vivo; details: FIGS. 1 and 2
Experimental: (8) Hallucinogenic activity
Each of the five mice in each group was confined n a box for 15 minutes to let it adapt to its surroundings. The mouse was kept on a black disc of 74 cm in diameter for 2 minutes from 5 and 15 minutes after administration of a test compound. The number of bizarre behaviours (walking backwards, pivoting and the like) was counted.

[3] = system: spontaneous locomotion in mice; assay: Spontaneous locomotor decreasing activity; type: in vivo; details: for ED50: Mus musculus, 50% decrease vs control, 95% confidence limits on a following line, read-out: ED50 (decreasing effect on spontaneous locomotion); for ED50 / % of decrease of spontaneous locomotion: mice, oral
Text: (7) Spontaneous locomotor decreasing activity
For each group 5 mice were used.

[4] = system: minimal electroshock seizures with reserpine; assay: Antidepressant activity: Anti-electroshock test with reserpine; type: in vivo, mice; details: for ED50: Mus musculus, po, mice, p.o., 0.5 hour before reserpine 2.5 mg/kg s.c., 12 mA, 0.2 sec, 4 hours after reserpine
Experimental: (§1) (4) Antidepressant activity
(4)-b Anti-electroshock test with reserpine
Seizures were induced by shocking mice (10 per dose) via a pair of corneal electrodes with current intensity of 12 mA and a duration of 0.2 sec 4 hours after administration of reserpine.

oxotremorine hypothermia = assay: Anti-cholinergic activity (Anti-oxotremorine hypothermia test); type: in vivo, mice; details: for ED50: Mus musculus, mice, oral, 30 minutes before oxotremorine 0.5 mg/kg s.c.
Experimental: (5) Anti-cholinergic activity (Anti-oxotremorine hypothermia test)
Before each experiment the rectal temperature of the mice was recorded with a probe thermometer at a constant depth. The mice were divided into groups of 8 in such a way that the mean rectal temperature was the same in each group. Test compounds were administered orally 30 minutes before s.c. administration of oxotremorine (0.5 mg/kg).

tetrabenazine ptosis = assay: Antidepressant activity: Anti-tetrabenazine ptosis test; type: in vivo, mice; details: for ED50: Mus musculus, mice, oral, 1 hour before TBZ 50 mg/kg s.c., ptosis 1 hour after TBZ
Experimental: as §1
(4)-a Anti-tetrabenazine ptosis test
Tetrabenazine (TBZ, 50 mg/kg s.c.) was administered to 5 mice for each group 1 hour after oral treatment with test compounds. […] (4=complete, 3=3/4, 2=1/2, 1=[…] closure of the eyelid, 0=normal).

[5] = compared with imipramine, Table 2

| SMILES | ED50 (Acetic acid writhing) | LD50 at 72 h (Acute toxicity) | ED30 (Carrageenin edema) | ED50 [4] | ED50 (oxotremorine hypothermia) | ED50 (tetrabenazine ptosis) | also measured |
| --- | --- | --- | --- | --- | --- | --- | --- |
| CN(C)CC1CCSc2c1n(C)c1ccccc21 (centres unmarked) [Compound 3, 4-Dimethylaminomethyl-5-methyl-2,3,4,5-tetrahydrothiopyrano[3,2-b]indole] | 17.8 mg/kg | 400 mg/kg | 28.3 mg/kg |  |  |  |  |
| CNCC1CC[S+]([O-])c2c1n(C)c1ccccc21 (centres unmarked) [Compound 4, 4-Methylaminomethyl-5-methyl-2,3,4,5-tetrahydrothiopyrano[3,2-b]indole 1-oxide] | 49 mg/kg | > 1000 mg/kg |  |  |  |  |  |
| Cc1c(N(C)C)c(=O)n(-c2ccccc2)n1C [Aminopyrine, reference compound] | 58 mg/kg | 800 mg/kg | 24 mg/kg |  |  |  |  |
| C=CCn1c2c(c3ccccc31)SCCC2CNC (centres unmarked) [Compound 5] | 11.3 mg/kg | 700 mg/kg | 17.5 mg/kg |  |  |  |  |
| CCN(CC)CCN(C)CC1CCSc2c1n(C)c1ccccc21 (centres unmarked) [Compound 6] | 25.3 mg/kg | 700 mg/kg | 13.4 mg/kg |  |  |  |  |
| CN[C@@H](C)Cc1ccccc1 [Methamphetamine, reference compound] |  |  |  |  |  |  | ED50 ([1]; mice): 0.6 mg/kg; % of increase of spontaneous locomotion ([1]; mice, 0.5 mg/kg): 45.4%; % of increase of spontaneous locomotion ([1]; mice, 1 mg/kg): 62.5%; % of increase of spontaneous locomotion ([1]; mice, 2 mg/kg): 137.8% |
| CCn1c2c(c3ccccc31)SCCC2CNC (centres unmarked) [Compound 2, 4-methylaminomethyl-5-ethyl-2,3,4,5-tetrahydrothiopyrano[3,2-b]indole] | 13.3 mg/kg | 800 mg/kg | 9.4 mg/kg |  |  |  |  |
| CNCC1CCSc2[nH]c3ccccc3c21 (centres unmarked) [Ref., 4methylaminomethyl-2,3,4,9-tetrahydro-thiopyrano [3,2b]indole HCl salt, reference compound] | 4.2 mg/kg | 330 mg/kg |  | 8.4 mg/kg | > 50 mg/kg | > 50 mg/kg | hallucinogenic activity [2]: does; ED50 [3]: 43 mg/kg; effect on spontaneous locomotion (in words) ([3]; Table 4): decreases the activity; % of decrease of spontaneous locomotion ([3]; 25 mg/kg): 7.4%; % of decrease of spontaneous locomotion ([3]; 50 mg/kg): 75.3%; % of decrease of spontaneous locomotion ([3]; 100 mg/kg): 97.2% |
| CNCC1CCSc2c1n(C)c1ccccc21 (centres unmarked) [Compound 1, 4-Methylaminomethyl-5-methyl-2,3,4,5-tetrahydrothiopyrano[3,2-b]indole] | 6.4 mg/kg | 400 mg/kg | 9.4 mg/kg | 4.3 mg/kg | > 50 mg/kg | 24.4 mg/kg | hallucinogenic activity [2]: no hallucinogenic activity; anti-depressant activity (in words) [4, 5]: strong anti-depressant activity; anti-cholinergic activity (in words) (oxotremorine hypothermia; Table 2): no anti-cholinergic acitivity; ED50 ([1]; mice): 5.6 mg/kg; duration of spontaneous locomotion increasing activity ([1]; continuous/successive administration): more than 24 hours; effect on spontaneous locomotion (in words) ([1]; mice, Table 3): moderately increases spontaneous locomotion; strength of locomotion increasing activity compared with methamphetamine (in words) ([1]; mice, Table 3): does not have so strong increasing activity as methamphethamine; % of increase of spontaneous locomotion ([1]; mice, 5 mg/kg): 54.3%; % of increase of spontaneous locomotion ([1]; mice, 10 mg/kg): 91.4%; % of increase of spontaneous locomotion ([1]; mice, 20 mg/kg): 123.0%; anti-depressant activity (in words) (tetrabenazine ptosis; [5]): strong anti-depressant activity |
| CN(C)CCCN1c2ccccc2CCc2ccccc21 [Imipramine] |  |  |  | 102 mg/kg | 4.5 mg/kg | 6 mg/kg | ED50 [3]: 56 mg/kg; % of decrease of spontaneous locomotion ([3]; 25 mg/kg): 19.1%; % of decrease of spontaneous locomotion ([3]; 50 mg/kg): 56.0%; % of decrease of spontaneous locomotion ([3]; 100 mg/kg): 62.9% |
